Measured values: patent US20240218022A1, “ANTI-VISTA MACROCYCLIC PEPTIDES AND COMPOSITIONS” (BRISTOL-MYERS SQUIBB COMPANY, priority 2022, published 2024)
Positions of bridges follow the written chain, without caps; N, C: chain ends. Non-standard residues stand in square brackets, D forms with d. Residues, ends and D or L forms follow the SMILES beside them. Ahp(2) = CCCCC[C@H](N)C(=O)O; NHexGly = CCCCCCNCC(=O)O; Nle = CCCC[C@H](N)C(=O)O; Orn = NCCC[C@H](N)C(=O)O; Nva = CCC[C@H](N)C(=O)O

Molecular target: T1, mouse VISTA (mVISTA) (Mus musculus, UniProt Q9D659)
T1 construct: expressed in transfected cells; host or cells: Human embryonic kidney 293T cells
T1 sequence (Q9D659 33-308): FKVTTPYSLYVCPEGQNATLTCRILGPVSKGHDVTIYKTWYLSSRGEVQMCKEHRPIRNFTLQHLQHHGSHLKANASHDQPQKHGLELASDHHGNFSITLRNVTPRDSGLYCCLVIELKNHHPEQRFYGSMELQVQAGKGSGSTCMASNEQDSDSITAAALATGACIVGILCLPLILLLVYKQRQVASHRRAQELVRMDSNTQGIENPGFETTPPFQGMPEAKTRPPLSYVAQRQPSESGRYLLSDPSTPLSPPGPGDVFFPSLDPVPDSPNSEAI
Assay: Cell-Based Binding High-Content Assay For mVISTA (HC CBA mVISTA)
Settings: 293T cells expressing mouse VISTA; competition with biotinylated peptide (2 nM); read-out: HC CBA mVISTA IC50
Procedure, shortened: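 Read-out: Alexa 647–streptavidin signal imaged on fixed, Hoechst-stained mVISTA-293T cells, with IC50 taken from a four-parameter logistic curve. Compounds competed with 2 nM biotinylated peptide for 30 min at room temperature, tested under both no-wash and wash (1 h compound, media exchange, 1 h) formats.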

Compound	IC50 [nM]
CCCCCCN1CC(=O)N[C@@H](Cc2ccc(O)cc2)C(=O)N[C@@H](CCCCC)C(=O)N[C@@H](CC(=O)O)C(=O)N[C@@H](CCCNC(=N)N)C(=O)N[C@@H](CC(C)C)C(=O)N[C@@H](CCCCC)C(=O)N2CCC[C@H]2C(=O)N[C@@H](C(C)C)C(=O)N[C@@H](CO)C(=O)N[C@H](C(=O)NCC(N)=O)CSCC(=O)N[C@@H](Cc2ccccc2)C(=O)N[C@@H](Cc2ccc(O)cc2)C(=O)N[C@@H](CC(=O)O)C1=O [Example 1038] ({CH2CO}-FYD[NHexGly]Y[Ahp(2)]DRL[Ahp(2)]PVSCG-NH2; thioether N-14)	38.4
CCCCCCN1CC(=O)N[C@@H](Cc2ccc(O)cc2)C(=O)N[C@@H](CCCCC)C(=O)NCC(=O)N[C@@H](CCCNC(=N)N)C(=O)N[C@@H](CC(C)C)C(=O)N[C@@H](CCCCC)C(=O)N2CCC[C@H]2C(=O)N[C@@H](C(C)C)C(=O)N[C@@H](CO)C(=O)N[C@H](C(=O)NCC(N)=O)CSCC(=O)N[C@@H](Cc2ccccc2)C(=O)N[C@@H](Cc2ccc(O)cc2)C(=O)N[C@@H](CC(=O)O)C1=O [Example 1039] ({CH2CO}-FYD[NHexGly]Y[Ahp(2)]GRL[Ahp(2)]PVSCG-NH2; thioether N-14)	2.2
CCCCCCN1CC(=O)N[C@@H](Cc2ccc(O)cc2)C(=O)N[C@@H](CC(C)C)C(=O)N[C@@H](CC(=O)O)C(=O)N[C@@H](CCCNC(=N)N)C(=O)N[C@@H](CC(C)C)C(=O)N[C@@H](CCCCC)C(=O)N2CCC[C@H]2C(=O)N[C@@H](C(C)C)C(=O)N[C@@H](CO)C(=O)N[C@H](C(=O)NCC(N)=O)CSCC(=O)N[C@@H](Cc2ccccc2)C(=O)N[C@@H](Cc2ccc(O)cc2)C(=O)N[C@@H](CC(=O)O)C1=O [Example 1041] ({CH2CO}-FYD[NHexGly]YLDRL[Ahp(2)]PVSCG-NH2; thioether N-14)	24.9
CCCCCCN1CC(=O)N[C@@H](Cc2ccc(O)cc2)C(=O)N[C@@H](CCCCC)C(=O)N[C@@H](C)C(=O)N[C@@H](CCCNC(=N)N)C(=O)N[C@@H](CC(C)C)C(=O)N[C@@H](CCCCC)C(=O)N2CCC[C@H]2C(=O)N[C@@H](C(C)C)C(=O)N[C@@H](CO)C(=O)N[C@H](C(=O)NCC(=O)O)CSCC(=O)N[C@@H](Cc2ccccc2)C(=O)N[C@@H](Cc2ccc(O)cc2)C(=O)N[C@@H](CC(=O)O)C1=O [Example 1042] ({CH2CO}-FYD[NHexGly]Y[Ahp(2)]ARL[Ahp(2)]PVSCG-OH; thioether N-14)	36.3
CCCCCCN1CC(=O)N[C@@H](Cc2ccc(O)cc2)C(=O)N[C@@H](CCCCC)C(=O)NCC(=O)N[C@@H](CCCNC(=N)N)C(=O)N[C@@H](CC(C)C)C(=O)N[C@@H](CCCCC)C(=O)N2CCC[C@H]2C(=O)N[C@@H](C(C)C)C(=O)N[C@@H](CO)C(=O)N[C@H](C(=O)NCC(=O)O)CSCC(=O)N[C@@H](Cc2ccccc2)C(=O)N[C@@H](Cc2ccc(O)cc2)C(=O)N[C@@H](CC(=O)O)C1=O [Example 1044] ({CH2CO}-FYD[NHexGly]Y[Ahp(2)]GRL[Ahp(2)]PVSCG-OH; thioether N-14)	21.4
CCCCCCN1CC(=O)N[C@@H](Cc2ccc(O)cc2)C(=O)N[C@@H](CC(C)C)C(=O)NCC(=O)N[C@@H](CCCNC(=N)N)C(=O)N[C@@H](CC(C)C)C(=O)N[C@@H](CCCCC)C(=O)N2CCC[C@H]2C(=O)N[C@@H](C(C)C)C(=O)N[C@@H](CO)C(=O)N[C@H](C(=O)NCC(N)=O)CSCC(=O)N[C@@H](Cc2ccccc2)C(=O)N[C@@H](Cc2ccc(O)cc2)C(=O)N[C@@H](CC(=O)O)C1=O [Example 1049] ({CH2CO}-FYD[NHexGly]YLGRL[Ahp(2)]PVSCG-NH2; thioether N-14)	9.5
CCCCCCN1CC(=O)N[C@@H](Cc2ccc(O)cc2)C(=O)N[C@@H](CCCC)C(=O)NCC(=O)N[C@@H](CCCNC(=N)N)C(=O)N[C@@H](CC(C)C)C(=O)N[C@@H](CCCCC)C(=O)N2CCC[C@H]2C(=O)N[C@@H](C(C)C)C(=O)N[C@@H](CO)C(=O)N[C@H](C(=O)NCC(N)=O)CSCC(=O)N[C@@H](Cc2ccccc2)C(=O)N[C@@H](Cc2ccc(O)cc2)C(=O)N[C@@H](CC(=O)O)C1=O [Example 1050] ({CH2CO}-FYD[NHexGly]Y[Nle]GRL[Ahp(2)]PVSCG-NH2; thioether N-14)	29.9
CCCCCCN1CC(=O)N[C@@H](Cc2ccc(O)cc2)C(=O)N[C@@H](CCCCN)C(=O)N[C@@H](CC(=O)O)C(=O)N[C@@H](CCCN)C(=O)N[C@@H](CC(C)C)C(=O)N[C@@H](CCCCC)C(=O)N2CCC[C@H]2C(=O)N[C@@H](C(C)C)C(=O)N[C@@H](CO)C(=O)N[C@H](C(=O)NCC(=O)O)CSCC(=O)N[C@@H](Cc2ccccc2)C(=O)N[C@@H](Cc2ccc(O)cc2)C(=O)N[C@@H](CC(=O)O)C1=O [Example 1051] ({CH2CO}-FYD[NHexGly]YKD[Orn]L[Ahp(2)]PVSCG-OH; thioether N-14)	11.5
CCCCCCN1CC(=O)N[C@@H](Cc2ccc(O)cc2)C(=O)N[C@@H](CCCCN)C(=O)N[C@@H](CC(=O)O)C(=O)N[C@@H](CCCNC(=N)N)C(=O)N[C@@H](CC(C)C)C(=O)N[C@@H](CCCCC)C(=O)N2CCC[C@H]2C(=O)N[C@@H](C(C)C)C(=O)N[C@@H](CO)C(=O)N[C@H](C(=O)NCC(=O)O)CSCC(=O)N[C@@H](Cc2ccccc2)C(=O)N[C@@H](Cc2ccc(O)cc2)C(=O)N[C@@H](CC(=O)O)C1=O [Example 1052] ({CH2CO}-FYD[NHexGly]YKDRL[Ahp(2)]PVSCG-OH; thioether N-14)	27.1
CCCCCCN1CC(=O)N[C@@H](Cc2ccc(O)cc2)C(=O)N[C@@H](CCCCN)C(=O)NCC(=O)N[C@@H](CCCNC(=N)N)C(=O)N[C@@H](CC(C)C)C(=O)N[C@@H](CCCCC)C(=O)N2CCC[C@H]2C(=O)N[C@@H](C(C)C)C(=O)N[C@@H](CO)C(=O)N[C@H](C(=O)NCC(=O)O)CSCC(=O)N[C@@H](Cc2ccccc2)C(=O)N[C@@H](Cc2ccc(O)cc2)C(=O)N[C@@H](CC(=O)O)C1=O [Example 1053] ({CH2CO}-FYD[NHexGly]YKGRL[Ahp(2)]PVSCG-OH; thioether N-14)	20.7
CCCCCCN1CC(=O)N[C@@H](Cc2ccc(O)cc2)C(=O)N[C@@H](C(C)C)C(=O)NCC(=O)N[C@@H](CCCNC(=N)N)C(=O)N[C@@H](CC(C)C)C(=O)N[C@@H](CCCCC)C(=O)N2CCC[C@H]2C(=O)N[C@@H](C(C)C)C(=O)N[C@@H](CO)C(=O)N[C@H](C(=O)NCC(N)=O)CSCC(=O)N[C@@H](Cc2ccccc2)C(=O)N[C@@H](Cc2ccc(O)cc2)C(=O)N[C@@H](CC(=O)O)C1=O [Example 1054] ({CH2CO}-FYD[NHexGly]YVGRL[Ahp(2)]PVSCG-NH2; thioether N-14)	29.7

More lines, in order of falling IC50, values ahead:

IC50 [nM]	Compound
32.2	CCCCCCN1CC(=O)N[C@@H](Cc2ccc(O)cc2)C(=O)N[C@@H](CCC)C(=O)N[C@@H](CC(N)=O)C(=O)N[C@@H](CCCNC(=N)N)C(=O)N[C@@H](CC(C)C)C(=O)N[C@@H](CCCCC)C(=O)N2CCC[C@H]2C(=O)N[C@@H](C(C)C)C(=O)N[C@@H](CO)C(=O)N[C@H](C(=O)NCC(=O)O)CSCC(=O)N[C@@H](Cc2ccccc2)C(=O)N[C@@H](Cc2ccc(O)cc2)C(=O)N[C@@H](CC(=O)O)C1=O [Example 1047] ({CH2CO}-FYD[NHexGly]Y[Nva]NRL[Ahp(2)]PVSCG-OH; thioether N-14)
22.4	CCCCCCN1CC(=O)N[C@@H](Cc2ccc(O)cc2)C(=O)N[C@@H](CCCC)C(=O)N[C@@H](CC(=O)O)C(=O)N[C@@H](CCCN)C(=O)N[C@@H](CC(C)C)C(=O)N[C@@H](CCCCC)C(=O)N2CCC[C@H]2C(=O)N[C@@H](C(C)C)C(=O)N[C@@H](CO)C(=O)N[C@H](C(=O)NCC(N)=O)CSCC(=O)N[C@@H](Cc2ccccc2)C(=O)N[C@@H](Cc2ccc(O)cc2)C(=O)N[C@@H](CC(=O)O)C1=O [Example 1048] ({CH2CO}-FYD[NHexGly]Y[Nle]D[Orn]L[Ahp(2)]PVSCG-NH2; thioether N-14)
17.7	CCCCCCN1CC(=O)N[C@@H](Cc2ccc(O)cc2)C(=O)N[C@@H](CC(C)C)C(=O)N[C@@H](CC(N)=O)C(=O)N[C@@H](CCCNC(=N)N)C(=O)N[C@@H](CC(C)C)C(=O)N[C@@H](CCCCC)C(=O)N2CCC[C@H]2C(=O)N[C@@H](C(C)C)C(=O)N[C@@H](CO)C(=O)N[C@H](C(=O)NCC(=O)O)CSCC(=O)N[C@@H](Cc2ccccc2)C(=O)N[C@@H](Cc2ccc(O)cc2)C(=O)N[C@@H](CC(=O)O)C1=O [Example 1043] ({CH2CO}-FYD[NHexGly]YLNRL[Ahp(2)]PVSCG-OH; thioether N-14)
14	CCCCCCN1CC(=O)N[C@@H](Cc2ccc(O)cc2)C(=O)N[C@@H](CCCC)C(=O)N[C@@H](CC(N)=O)C(=O)N[C@@H](CCCNC(=N)N)C(=O)N[C@@H](CC(C)C)C(=O)N[C@@H](CCCCC)C(=O)N2CCC[C@H]2C(=O)N[C@@H](C(C)C)C(=O)N[C@@H](CO)C(=O)N[C@H](C(=O)NCC(=O)O)CSCC(=O)N[C@@H](Cc2ccccc2)C(=O)N[C@@H](Cc2ccc(O)cc2)C(=O)N[C@@H](CC(=O)O)C1=O [Example 1046] ({CH2CO}-FYD[NHexGly]Y[Nle]NRL[Ahp(2)]PVSCG-OH; thioether N-14)
5.4	CCCCCCN1CC(=O)N[C@@H](Cc2ccc(O)cc2)C(=O)N[C@@H](CC(C)C)C(=O)N[C@@H](CC(N)=O)C(=O)N[C@@H](CCCNC(=N)N)C(=O)N[C@@H](CC(C)C)C(=O)N[C@@H](CCCCC)C(=O)N2CCC[C@H]2C(=O)N[C@@H](C(C)C)C(=O)N[C@@H](CO)C(=O)N[C@H](C(=O)NCC(N)=O)CSCC(=O)N[C@@H](Cc2ccccc2)C(=O)N[C@@H](Cc2ccc(O)cc2)C(=O)N[C@@H](CC(=O)O)C1=O [Example 1040] ({CH2CO}-FYD[NHexGly]YLNRL[Ahp(2)]PVSCG-NH2; thioether N-14)
